Measured values reported in the supplement of paper PMC10307832.

Legend:
Assay in all cases: relative viability (nuclei count vs DMSO), 5 days (fraction); higher = more cells survive
[1] = compound: CC1=C(C(=NN1)C)CC2=C(C3=C(S2)N(C(=O)N(C3=O)C)CC(C)C)C(=O)N4C[C@@H](CO4)O + COc1cccc2cc(-c3nc([C@H]4CC[C@H](C(=O)O)CC4)n4ncnc(N)c34)[nH]c12 [OSI-027] (partner 0.5 µM)
Method in brief: (§1)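 The day after seeding in 1536-well plates, lung cancer cell lines were treated by pin tool with a single drug, or with a fixed anchor-drug dose together with five library-drug doses (not always all listed) in √10 steps. After 5 days, a combined fix-and-stain solution (final 0.05% Triton X-100, 1% formaldehyde, 1 ug/ml Hoechst) was added. Nuclei counted on 4× images gave relative viability as treated counts over vehicle counts, reported as the median of duplicate plates.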

IDH-C35 + Lapatinib = compound: Cc1ccccc1C(C(=O)NC1CCCCC1)N(C(=O)Cn1ccnc1C)c1cccc(F)c1 [IDH-C35] + CS(=O)(=O)CCNCc1ccc(-c2ccc3ncnc(Nc4ccc(OCc5cccc(F)c5)c(Cl)c4)c3c2)o1 [Lapatinib] (partner 2 µM)
Method in brief: as §1

IDH-C35 + Dasatinib = compound: Cc1ccccc1C(C(=O)NC1CCCCC1)N(C(=O)Cn1ccnc1C)c1cccc(F)c1 [IDH-C35] + Cc1nc(Nc2ncc(C(=O)Nc3c(C)cccc3Cl)s2)cc(N2CCN(CCO)CC2)n1 [Dasatinib] (partner 0.075 µM)
Method in brief: as §1

[2] = compound: CC1=C(C(=NN1)C)CC2=C(C3=C(S2)N(C(=O)N(C3=O)C)CC(C)C)C(=O)N4C[C@@H](CO4)O + CS(=O)(=O)N1CCN(Cc2cc3nc(-c4cccc5[nH]ncc45)nc(N4CCOCC4)c3s2)CC1 [Pictilisib] (partner 1 µM)
Method in brief: as §1

Row | Cell Line | relative viability ([1]; first compound 0.0025 µM) | relative viability ([1]; first compound 0.007906 µM) | relative viability ([1]; first compound 0.025 µM) | relative viability ([1]; first compound 0.07906 µM) | relative viability ([1]; first compound 0.25 µM) | relative viability (IDH-C35 + Lapatinib; first compound 0.08 µM) | relative viability (IDH-C35 + Lapatinib; first compound 0.253 µM) | relative viability (IDH-C35 + Lapatinib; first compound 0.8 µM) | relative viability (IDH-C35 + Lapatinib; first compound 2.53 µM) | relative viability (IDH-C35 + Lapatinib; first compound 8 µM) | relative viability (IDH-C35 + Dasatinib; first compound 0.08 µM) | relative viability (IDH-C35 + Dasatinib; first compound 0.253 µM) | relative viability (IDH-C35 + Dasatinib; first compound 0.8 µM) | relative viability (IDH-C35 + Dasatinib; first compound 8 µM) | relative viability ([2]; first compound 0.0025 µM) | relative viability ([2]; first compound 0.007906 µM) | relative viability ([2]; first compound 0.025 µM) | relative viability ([2]; first compound 0.07906 µM) | relative viability ([2]; first compound 0.25 µM) | relative viability (IDH-C35 + Dasatinib; first compound 2.53 µM)
1 | NCI-H596 | 0.721 | 0.822 | 0.889 | 0.803 | 0.715 | 1.01 | 1.04 | 1.11 | 1.16 | 1.06 | 0.588 | 0.759 | 0.693 | 0.56 | 0.387 | 0.369 | 0.387 | 0.431 | 0.593 | 
2 | H3255 | 0.609 | 0.565 | 0.62 | 0.604 | 0.602 | 0.246 | 0.244 | 0.283 | 0.304 | 0.414 | 0.406 | 0.415 | 0.306 | 0.331 | 0.523 | 0.473 | 0.43 | 0.45 | 0.62 | 0.453
3 | NCI-H647 | 0.727 | 0.805 | 0.805 | 0.769 | 0.569 | 1.01 | 1.08 | 0.999 | 1.09 | 0.86 | 0.194 | 0.204 | 0.198 | 0.192 | 0.494 | 0.444 |  | 0.525 | 0.483 | 0.223
4 | NCI-H2023 | 0.465 | 0.423 | 0.481 | 0.473 | 0.393 | 0.938 | 0.921 | 0.83 | 0.263 | 0.808 | 0.59 | 0.549 | 0.673 | 0.559 | 0.308 | 0.288 | 0.276 | 0.23 | 0.236 | 0.517
5 | NCI-H23 | 0.814 | 0.557 | 0.701 | 0.475 | 0.602 | 0.988 | 1.15 | 1.23 | 1.06 | 0.97 | 0.779 | 0.718 | 0.738 | 0.864 | 0.528 | 0.489 | 0.523 | 0.494 | 0.651 | 0.901
6 | NCI-H1944 | 0.434 | 0.45 | 0.416 | 0.427 | 0.391 | 0.858 | 0.824 | 0.81 | 0.774 | 0.832 | 0.233 | 0.228 | 0.211 | 0.211 | 0.351 | 0.376 | 0.356 | 0.389 | 0.386 | 0.228
7 | NCI-H1793 | 0.298 | 0.289 | 0.262 | 0.242 | 0.231 | 0.652 | 0.648 | 0.833 | 0.674 | 0.652 | 0.409 | 0.423 | 0.364 | 0.414 | 0.308 | 0.395 | 0.166 | 0.226 | 0.272 | 
8 | NCI-H520 | 0.276 | 0.281 | 0.27 | 0.277 | 0.193 | 0.895 | 0.979 | 0.765 | 0.884 | 0.914 | 0.191 | 0.159 | 0.202 | 0.217 | 0.32 | 0.259 | 0.304 | 0.269 | 0.288 | 0.181
9 | NCI-H460 | 0.718 | 0.821 | 0.683 | 0.648 | 0.779 | 1.19 | 1.11 | 0.978 | 0.888 | 0.963 | 0.379 | 0.512 | 0.49 | 0.495 | 0.432 | 0.492 | 0.356 | 0.367 | 0.387 | 0.479
10 | EKVX | 0.677 | 0.712 | 0.666 | 0.716 | 0.592 | 0.201 | 0.205 | 0.208 | 0.183 | 0.205 | 0.568 | 0.53 | 0.57 | 0.61 | 0.544 | 0.485 | 0.457 | 0.449 | 0.42 | 0.494
11 | NCI-H358 | 0.679 | 0.724 | 0.845 | 0.895 | 0.854 | 0.502 | 0.503 | 0.445 | 0.534 | 0.508 | 0.205 | 0.159 | 0.141 | 0.169 | 0.41 | 0.348 | 0.359 | 0.375 | 0.375 | 0.193
12 | EPLC-272H | 0.275 | 0.225 | 0.312 | 0.314 | 0.308 | 1.21 | 1.04 | 0.912 |  | 0.802 | 0.432 | 0.357 | 0.506 | 0.323 | 0.317 | 0.293 | 0.29 | 0.314 | 0.384 | 0.653
13 | NCI-H1563 | 0.802 | 0.76 | 0.738 | 0.779 | 0.741 | 1.11 | 0.955 | 0.96 | 0.912 | 1.09 | 0.455 | 0.472 | 0.446 | 0.465 | 0.649 | 0.68 | 0.649 | 0.672 | 0.735 | 0.487
14 | NCI-H1395 | 0.658 | 0.603 | 0.409 | 0.578 | 0.58 | 1 | 0.928 | 1.08 | 1.09 | 0.891 | 0.416 | 0.376 | 0.4 | 0.381 | 0.63 | 0.598 | 0.525 | 0.634 | 0.735 | 0.41
15 | NCI-H2126 | 0.78 | 0.669 | 0.787 | 0.661 | 0.684 | 0.77 | 0.77 | 0.705 | 0.777 | 0.739 | 0.6 | 0.651 | 0.596 | 0.588 | 0.513 | 0.493 | 0.509 | 0.478 | 0.494 | 0.605
16 | LXF-289 | 0.902 | 0.785 | 0.734 | 0.819 | 0.749 | 0.9 | 0.893 | 0.91 | 0.965 | 0.877 | 0.276 | 0.25 | 0.252 | 0.214 | 0.862 | 0.82 | 0.779 | 0.804 | 0.826 | 0.221
